Assay: Anticancer human tumor 997537-175-T-J1-PDC patient-derived colon adenocarcinoma cell line growth inhibition [POLQ]
Settings: 997537-175-T-J1-PDC complex spheroid viability, combination with POLQ inhibitors; for IC50: curve of first compound; for viability, T/C: stronger effect = lower value
Method in brief: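 Growth inhibition in 3D: complex spheroids (tumor PDC, HUVEC, MSC) treated with POLQ inhibitor combinations; where Cmax unknown, highest tested concentration 10 microM, except SN-38 at 1 microM.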

[1] = second compound 0.0316 µM, first compound 0.0316 µM
[2] = second compound 0.0316 µM, first compound 0.1 µM
[3] = second compound 0.1 µM, first compound 0.0316 µM
[4] = second compound 0.1 µM, first compound 0.1 µM
[5] = second compound 0.316 µM, first compound 0.0316 µM
[6] = second compound 0.316 µM, first compound 0.1 µM
[7] = second compound 1 µM, first compound 0.0316 µM
[8] = second compound 1 µM, first compound 0.1 µM
[9] = second compound 3.16 µM, first compound 0.0316 µM
[10] = second compound 3.16 µM, first compound 0.1 µM
[11] = second compound 10 µM, first compound 0.0316 µM
[12] = second compound 10 µM, first compound 0.1 µM
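Also: luminescence signal used as a surrogate for viable cells; spheroids exposed to drugs for seven days before readout.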

## CC1COCCN1c1cc(C2(S(C)(=N)=O)CC2)nc(-c2ccnc3[nH]ccc23)n1 (centres undefined) + COC1C(OC(N)=O)C(O)C(Oc2ccc3c(O)c(NC(=O)c4ccc(O)c(CC=C(C)C)c4)c(=O)oc3c2C)OC1(C)C
Second compound 0.0316 µM
  IC50: > 10 µM
Second compound 0.1 µM
  IC50: > 10 µM
Second compound 0.316 µM
  IC50: > 10 µM
Second compound 1 µM
  IC50: > 10 µM
Second compound 3.16 µM
  IC50: > 10 µM
Second compound 10 µM
  IC50: > 10 µM
[1]
  viability, T/C: 113%
[2]
  viability, T/C: 114%
Second compound 0.0316 µM, first compound 0.316 µM
  viability, T/C: 84.4%
Second compound 0.0316 µM, first compound 1 µM
  viability, T/C: 85.4%
Second compound 0.0316 µM, first compound 3.16 µM
  viability, T/C: 90%
Second compound 0.0316 µM, first compound 10 µM
  viability, T/C: 49.9%
[3]
  viability, T/C: 94.5%
[4]
  viability, T/C: 102%
Second compound 0.1 µM, first compound 0.316 µM
  viability, T/C: 82.7%
Second compound 0.1 µM, first compound 1 µM
  viability, T/C: 72.1%
Second compound 0.1 µM, first compound 3.16 µM
  viability, T/C: 80.3%
Second compound 0.1 µM, first compound 10 µM
  viability, T/C: 60.5%
[5]
  viability, T/C: 99.8%
[6]
  viability, T/C: 112%
Second compound 0.316 µM, first compound 0.316 µM
  viability, T/C: 105%
Second compound 0.316 µM, first compound 1 µM
  viability, T/C: 94.2%
Second compound 0.316 µM, first compound 3.16 µM
  viability, T/C: 77.7%
Second compound 0.316 µM, first compound 10 µM
  viability, T/C: 54.7%
[7]
  viability, T/C: 110%
[8]
  viability, T/C: 92.7%
Second compound 1 µM, first compound 0.316 µM
  viability, T/C: 102%
Second compound 1 µM, first compound 1 µM
  viability, T/C: 106%
Second compound 1 µM, first compound 3.16 µM
  viability, T/C: 67%
Second compound 1 µM, first compound 10 µM
  viability, T/C: 56.4%
[9]
  viability, T/C: 109%
[10]
  viability, T/C: 112%
Second compound 3.16 µM, first compound 0.316 µM
  viability, T/C: 106%
Second compound 3.16 µM, first compound 1 µM
  viability, T/C: 94.3%
Second compound 3.16 µM, first compound 3.16 µM
  viability, T/C: 79.2%
Second compound 3.16 µM, first compound 10 µM
  viability, T/C: 66.6%
[11]
  viability, T/C: 109%
[12]
  viability, T/C: 95.7%
Second compound 10 µM, first compound 0.316 µM
  viability, T/C: 98.9%
Second compound 10 µM, first compound 1 µM
  viability, T/C: 66.5%
Second compound 10 µM, first compound 3.16 µM
  viability, T/C: 71.6%
Second compound 10 µM, first compound 10 µM
  viability, T/C: 62.8%

## Cn1ncnc1[C@H]1c2n[nH]c(=O)c3cc(F)cc(c23)N[C@@H]1c1ccc(F)cc1 + COC1C(OC(N)=O)C(O)C(Oc2ccc3c(O)c(NC(=O)c4ccc(O)c(CC=C(C)C)c4)c(=O)oc3c2C)OC1(C)C
Second compound 0.0316 µM
  IC50: > 0.1 µM
Second compound 0.1 µM
  IC50: > 0.1 µM
Second compound 0.316 µM
  IC50: > 0.1 µM
Second compound 1 µM
  IC50: > 0.1 µM
Second compound 3.16 µM
  IC50: > 0.1 µM
Second compound 10 µM
  IC50: > 0.1 µM
Second compound 0.0316 µM, first compound 0.000316 µM
  viability, T/C: 92.9%
Second compound 0.0316 µM, first compound 0.001 µM
  viability, T/C: 99.7%
Second compound 0.0316 µM, first compound 0.00316 µM
  viability, T/C: 108%
Second compound 0.0316 µM, first compound 0.01 µM
  viability, T/C: 97.1%
[1]
  viability, T/C: 90.9%
[2]
  viability, T/C: 82.8%
Second compound 0.1 µM, first compound 0.000316 µM
  viability, T/C: 102%
Second compound 0.1 µM, first compound 0.001 µM
  viability, T/C: 96.8%
Second compound 0.1 µM, first compound 0.00316 µM
  viability, T/C: 91.8%
Second compound 0.1 µM, first compound 0.01 µM
  viability, T/C: 91.9%
[3]
  viability, T/C: 97.9%
[4]
  viability, T/C: 91.5%
Second compound 0.316 µM, first compound 0.000316 µM
  viability, T/C: 102%
Second compound 0.316 µM, first compound 0.001 µM
  viability, T/C: 95.9%
Second compound 0.316 µM, first compound 0.00316 µM
  viability, T/C: 98.3%
Second compound 0.316 µM, first compound 0.01 µM
  viability, T/C: 91%
[5]
  viability, T/C: 91.7%
[6]
  viability, T/C: 92.8%
Second compound 1 µM, first compound 0.000316 µM
  viability, T/C: 104%
Second compound 1 µM, first compound 0.001 µM
  viability, T/C: 97.1%
Second compound 1 µM, first compound 0.00316 µM
  viability, T/C: 94.9%
Second compound 1 µM, first compound 0.01 µM
  viability, T/C: 101%
[7]
  viability, T/C: 104%
[8]
  viability, T/C: 102%
Second compound 3.16 µM, first compound 0.000316 µM
  viability, T/C: 97%
Second compound 3.16 µM, first compound 0.001 µM
  viability, T/C: 104%
Second compound 3.16 µM, first compound 0.00316 µM
  viability, T/C: 94.8%
Second compound 3.16 µM, first compound 0.01 µM
  viability, T/C: 96.4%
[9]
  viability, T/C: 105%
[10]
  viability, T/C: 83.3%
Second compound 10 µM, first compound 0.000316 µM
  viability, T/C: 94.7%
Second compound 10 µM, first compound 0.001 µM
  viability, T/C: 94.8%
Second compound 10 µM, first compound 0.00316 µM
  viability, T/C: 89.1%
Second compound 10 µM, first compound 0.01 µM
  viability, T/C: 110%
[11]
  viability, T/C: 98.3%
[12]
  viability, T/C: 102%
